Laboratory results from PMC11396935, “Exploration of Compounds with 2-Phenylbenzo[d]oxazole Scaffold as Potential Skin-Lightening Agents through Inhibition of Melanin Biosynthesis and Tyrosinase Activity” (Molecules, 2024).
pKi: −log10 of the molar value.

What was measured:
B16F10 cells = test: B16F10 cell viability assay (EZ-Cytox); type: cell-based, murine; conditions: 0, 1, 2, 5 μM
Experimental: Since the 2-phenylbenzoxazole compounds 3, 8, and 13 were identified as being potent mushroom tyrosinase inhibitors, they were used in B16F10-cell-based experiments. Before assessing the biological impact of compounds 3, 8, and 13 in the B16F10 cells, the effect of these compounds on B16F10 cell viability was evaluated. The cells were treated with the compounds at concentrations of 0, 1, 2, and 5 μM for 48 and 72 h, respectively.
3.7. B16F10 Cell Viability Assay
Test samples (3, 8, and 13) were added to each well at final concentrations of 0, 1, 2, and 5 μM and cultivated for 48 and 72 h, respectively. Each well was treated with 10 μL of EZ-Cytox solution (EZ-1000®, DoGenBio, Seoul, Republic of Korea) and cultivated for 2 h. The absorbance of each well was measured at 450 nm using an ELISA reader.

[1] = test system: B16F10 cellular tyrosinase; test: Cellular tyrosinase activity assay in B16F10 cells; type: cell-based, murine; conditions: 1, 2, 5 μM; kojic acid 5 μM; α-MSH 1 μM + IBMX 200 μM, 72 h
Experimental: To investigate the origins of the anti-melanogenic effects of compounds 3, 8, and 13, their impacts on B16F10 cellular tyrosinase inhibition were evaluated. The experiment utilized a similar experimental method and the same concentrations as those used in the melanin content experiment. Compounds 3, 8, and 13 (1, 2, and 5 μM), kojic acid (5 μM: positive control), and stimulators (1 μM α-MSH and 200 μM IBMX) were used in this experiment. Prior to treatment with the stimulators for 72 h, the test samples (3, 8, 13, and kojic acid) were pre-treated for 1 h.
3.9. Cellular Tyrosinase Activity Assay in B16F10 Cells
The effects of compounds 3, 8, and 13 on B16F10 cellular tyrosinase activity were assessed using a previously reported method. B16F10 cells were seeded, treated with the samples and stimulators, and cultured for 72 h in the same manner as for the cellular melanin content assay. To lyse the cultured cells, a lysis buffer was prepared containing 1 mM phenylmethylsulfonyl fluoride, 50 mM phosphate buffer, and 1% Triton X-100 (5:90:5, v/v/v). The cultivated cells were lysed by adding the prepared lysis buffer (100 µL) after washing twice with PBS. The lysed cells were centrifuged for 30 min at 4 °C and 10,000 g after freezing for 1 h at −80 °C. The supernatants (80 µL) and 10 mM L-dopa (20 µL) were added to each well of a 96-well plate and cultivated for 10 min at 37 °C. The optical density was measured at 475 nm using an ELISA reader. Normalization was performed using a Pierce BCA Protein Assay Kit.

[2] = ABTS radical cation scavenging assay; conditions: 100 μM
Experimental: For ABTS^+• scavenging experiments, ABTS^+• was generated by oxidizing ABTS using potassium persulfate. All test samples (Trolox [TR; positive material] and 1–15) were used at a final concentration of 100 μM. […] Both compounds share a common catechol structure. […] Similar results were obtained in the DPPH radical scavenging experiment. […] Compounds 4, 9, and 14, bearing a 4-hydroxy-3-methoxyphenyl, scavenged ABTS^+• moderately (23–51%).
3.15. 2,2′-Azino-bis(3-ethylbenzothiazoline-6-sulfonic Acid) (ABTS) Radical Cation Scavenging Assay
The effect of the 2-phenylbenzoxazole compounds 1–15 on radical scavenging was assessed using an ABTS assay, as previously reported. An ABTS aqueous solution (7 mM) was mixed with a K2S2O8 aqueous solution (2.45 mM) in equal volumes (each 20 mL) and incubated in the dark for 20 h at 25 °C to generate ABTS^+•. The ABTS^+• solution was then diluted with pure EtOH to adjust the absorbance of the solution to 0.7 ± 0.02 at 730 nm. The test samples (1–15 and Trolox [positive control]) were dissolved in a co-solvent of EtOH and DMSO (9:1, v/v) to make a 1 mM solution. The diluted ABTS^+• solution was mixed with the test sample solution at a volume ratio of 9:1 (90 μL:10 μL) and the mixture was stored for 2 min at 20 °C in the dark. The optical density was measured at 730 nm using an ELISA reader at 1 min intervals for 10 min. All test samples were used at a final concentration of 100 µM.
ABTS^+• radical scavenging activity (%) = [(ODcon − ODsam)/ODcon] × 100, where ODsam and ODcon represent the absorbances of the test sample and the control, respectively.

[3] = test system: B16F10 tyrosinase in situ; conditions: compounds 1, 2, 5 μM; kojic acid 5 μM; α-MSH + IBMX 72 h; excess L-dopa
Experimental: To evaluate the effect of the compounds on in situ tyrosinase activity, an experiment using B16F10 cells was performed as previously described [34, 35]. […] Excess L-dopa was added to increase their melanin production prior to the acquisition of cell images.
In Situ Tyrosinase Activity Assay Using B16F10 Cells and L-dopa
In situ tyrosinase activity was measured in B16F10 cells using L-dopa, as reported previously [34]. […] The cells were processed as follows: (1) fixing with 4% paraformaldehyde for 40 min, (2) washing with PBS, and (3) permeabilizing with 0.1% Triton X-100 for 2 min. After washing with PBS, the cells were stained with L-dopa (2 mM; 500 μL) at 37 °C for 2 h. Stained images were collected using a camera connected to a microscope (Motic, Hong Kong).

mushroom tyrosinase = molecular target: T1, mushroom tyrosinase (Agaricus bisporus, UniProt C7FF04); test: Kinetic study using mushroom tyrosinase (Lineweaver–Burk and Dixon plots); type: biochemical; conditions: for inhibition mode (Lineweaver–Burk plots): substrate L-dopa 0.5–16 mM; for pKi: substrate L-dopa 1, 2, 4, 8 mM, read-out: inhibition constant Ki (Dixon plot)
T1 construct: purchased Sigma-Aldrich (St. Louis, MO, USA)
Experimental: For the inhibition mechanism study of the 2-phenylbenzoxazole compounds, kinetic studies of mushroom tyrosinase were conducted. […] Kinetic experiments were performed using various concentrations of L-dopa. Lineweaver–Burk plots were obtained for each compound by plotting the inverse of the L-dopa concentration against the inverse of the initial rate of dopachrome production (Figure 4). In the Lineweaver–Burk plots (Figure 4B,C), the lines for compounds 8 and 13 merged at one point on the y-axis, whereas the lines for 3 (Figure 4A) merged at one point in the second quadrant.
These Dixon plots were obtained by plotting the inhibitor concentration against the inverse of the initial dopachrome production rate (Figure 5). The four lines for each Dixon plot were merged at one point in the second quadrant. The absolute x-coordinate of each merged point represents the Ki value of each compound.
3.4. Kinetic Study Experiment Using Mushroom Tyrosinase
Mushroom tyrosinase was incubated with 2-phenylbenzoxazole inhibitors (3, 8, or 13) in the presence of various concentrations (0.5–16 mM) of L-dopa to measure the initial dopachrome production rate. An aqueous substrate mixture, consisting of phosphate buffer (pH 6.5; 17.2 mM) and L-dopa (345 μM), was prepared. A 96-well plate containing the inhibitor DMSO solution (10 μL), aqueous mushroom tyrosinase solution (20 μL; 20 units), and aqueous substrate mixture (170 μL) in each well was incubated for 20 min at 37 °C. During incubation, the absorbance at 475 nm was recorded at 5 min intervals using an ELISA reader to prepare Lineweaver–Burk plots for each inhibitor.

T1 sequence (C7FF04 1-392 limits assumed): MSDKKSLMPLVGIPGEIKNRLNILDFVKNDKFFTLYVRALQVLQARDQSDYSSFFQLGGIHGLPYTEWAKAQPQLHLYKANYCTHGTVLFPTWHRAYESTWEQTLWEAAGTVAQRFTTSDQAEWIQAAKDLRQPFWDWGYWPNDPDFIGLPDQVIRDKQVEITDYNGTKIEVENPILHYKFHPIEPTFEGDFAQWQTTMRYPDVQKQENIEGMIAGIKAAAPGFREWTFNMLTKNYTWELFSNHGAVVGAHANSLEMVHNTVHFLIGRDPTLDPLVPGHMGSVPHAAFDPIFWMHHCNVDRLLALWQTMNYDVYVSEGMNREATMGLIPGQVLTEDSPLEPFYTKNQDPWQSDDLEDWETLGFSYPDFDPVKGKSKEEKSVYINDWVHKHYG

| inhibition mode (Lineweaver–Burk plots) (mushroom tyrosinase) | Structure (SMILES) | cytotoxicity to B16F10 cells, 48 h (B16F10 cells) | cytotoxicity to B16F10 cells, 72 h (B16F10 cells) | B16F10 cellular tyrosinase activity [1] | ABTS+• scavenging activity (% inhibition) [2] | melanin formation, in situ tyrosinase activity in B16F10 cells [3] | pKi (mushroom tyrosinase) |
| --- | --- | --- | --- | --- | --- | --- | --- |
| mixed-type inhibitor | Cc1ccc2nc(-c3ccc(O)cc3O)oc2c1 [Compound 3, 4-(6-Methylbenzo[d]oxazol-2-yl)benzene-1,3-diol] | not cytotoxic | weak cytotoxicity at the highest concentration tested | reduced the stimulator-induced tyrosinase activity in a concentration-dependent manner | 57% | reduced melanin formation in a concentration-dependent manner |  |
| competitive inhibitors | Cc1ccc2oc(-c3ccc(O)cc3O)nc2c1 [Compound 13, 4-(5-Methylbenzo[d]oxazol-2-yl)benzene-1,3-diol] | not cytotoxic | did not show cytotoxicity | reduced the stimulator-induced tyrosinase activity in a concentration-dependent manner | 54% | reduced melanin formation in a concentration-dependent manner | 4.76 |

| Structure (SMILES) | inhibition mode (Lineweaver–Burk plots) (mushroom tyrosinase) | cytotoxicity to B16F10 cells, 48 h (B16F10 cells) | cytotoxicity to B16F10 cells, 72 h (B16F10 cells) | B16F10 cellular tyrosinase activity [1] | ABTS+• scavenging activity (% inhibition) [2] | melanin formation, in situ tyrosinase activity in B16F10 cells [3] | pKi (mushroom tyrosinase) |
| --- | --- | --- | --- | --- | --- | --- | --- |
| Oc1ccc(-c2nc3ccc(Cl)cc3o2)c(O)c1 [Compound 8, 4-(6-Chlorobenzo[d]oxazol-2-yl)benzene-1,3-diol] | competitive inhibitors | not cytotoxic | did not show cytotoxicity | reduced the stimulator-induced tyrosinase activity in a concentration-dependent manner | 64% | reduced melanin formation in a concentration-dependent manner | 4.90 |
